Results published in patent US10030016B2 (Sunesis Pharmaceuticals, Inc., priority 2009, dated 2018).
Like-named read-outs stand apart in the source and are kept apart here.

Legend:
PDK1 = PDK1 (Homo sapiens (Human), UniProt O15530); assay: PDK1 kinase assay (coupled PDK1/AKT/FAM-crosstide assay, IMAP fluorescence polarization); type: biochemical
In short: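 Inhibition is derived by 4-parameter fitting of ΔmP from an IMAP fluorescence polarization read of FAM-crosstide (100 nM) phosphorylation. The cascade ran 30 min at 25 °C with 40 μM ATP, using insect-cell GST-PDK1 51-359 (0.75 nM) driving 10 nM unphosphorylated AKT2 140-467-PIFtide fusion.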

[1] = tested on: phospho-akt (Thr308) in PC-3 cells; assay: Inhibition of phospho-akt (Thr308) in PC-3 cells, MSD phospho-akt 308 ELISA kit; type: cell-based; conditions: Homo sapiens, 2 hours, no serum, read-out: EC50
In short: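 PC-3 cells (15,000/well, overnight in 10% FBS medium) treated 2 h with three-fold diluted compounds in serum-free medium; DMSO high and 5 μM wortmannin low controls. Lysates captured on BSA-blocked MSD plates overnight at 4 °C, then 1 h antibody detection at RT; phospho-Akt Thr308 read by MSD electrochemiluminescence.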

[2] = inhibition of P308 Akt in PC-3 cells using MSD
[3] = inhibition of phospo-PDK1 in vitro
[4] = inhibition of P308 Akt in PC-3 cells, MSD
[5] = PC-3, 2 h, inhibition of P308 Akt in PC-3 cells using MSD

Chain of PDK1 (O15530 51-359): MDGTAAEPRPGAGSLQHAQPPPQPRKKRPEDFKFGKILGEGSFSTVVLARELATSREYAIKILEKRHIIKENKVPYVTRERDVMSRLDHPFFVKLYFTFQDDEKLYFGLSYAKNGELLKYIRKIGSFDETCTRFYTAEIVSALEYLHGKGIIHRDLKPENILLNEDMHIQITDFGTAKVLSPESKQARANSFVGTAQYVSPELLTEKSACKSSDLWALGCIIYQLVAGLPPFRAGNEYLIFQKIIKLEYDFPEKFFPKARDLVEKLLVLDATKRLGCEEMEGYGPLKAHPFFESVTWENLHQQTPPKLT

Row | Compound | IC50 (PDK1; inhibition of PDK1 in vitro) | EC50 [1, 2] | IC50 (PDK1; [3]) | EC50 [1, 4] | EC50 [1, 5]
1 | Nc1n[nH]c2ncc(-c3ccc(CNc4ncc(C(F)(F)F)cc4C(=O)Nc4c(F)cc(F)cc4F)cc3)cc12 [Example 278, 2-(4-(3-amino-1H-pyrazolo [3,4-b]pyridin-5-yl)benzylamino)-5-(trifluoromethyl)-N-(2,4,6-trifluorophenyl)nicotinamide] | < 0.1 µM | < 1 µM |  |  | 
2 | CN(C)CCCNC(=O)c1cnc(NCc2ccc(-c3ccc4ncnc(N)c4c3)s2)c(C(=O)NCc2ccc(F)c(F)c2)c1 [Example 7.24.5, 2-({[5-(4-aminoquinazolin-6-yl)thiophen-2-yl]methyl}amino)-N^3-(3,4-difluorobenzyl)-N^5-[3-(dimethylamino)propyl] pyridine-3,5-dicarboxamide] |  |  | 0.1 to 1 µM | > 10 µM | 
3 | CCn1cc(-c2ccc(CNc3ncc(C(F)(F)F)cc3C(=O)Nc3ccc(F)cc3)cc2)c2c(N)ncnc21 [Example 430, 2-(4-(4-amino-7-ethyl-7H-pyrrolo[2,3-d]pyrimidin-5-yl)benzylamino)-N-(4-fluorophenyl)-5-(trifluoromethyl)nicotinamide] | < 0.1 µM | 1 to 10 µM |  |  | 
4 | Nc1ncnc2ccc(-c3ccc(CNc4nccc5ncn(Cc6ccc(F)c(F)c6)c(=O)c45)s3)cc12 [Ex. 7.8] |  |  | < 0.1 µM | < 1 µM | 
5 | CNc1cnc2ccc(-c3ccc(CNc4ncccc4C(=O)N[C@@H](C)c4ccc(F)c(F)c4)s3)cc2n1 [Example 4.28, (S)-N-(1-(3,4-difluoro-phenyl)ethyl)-2-(((5-(3-(methyl)amino)quinoxalin-6-yl)thiophen-2-yl)methylamino) nicotinamide] |  |  | 0.1 to 1 µM | 1 to 10 µM | 
6 | C[C@H](NC(=O)c1cc(C#N)cnc1NCc1ccc(-c2cnc(N)c(CCCN)n2)nc1)c1ccc(F)cc1 [Example 74, 2-({6-[5-Amino-6-(3-amino-propyl)-pyrazin-2-yl]-pyridin-3-ylmethyl}-amino)-5-cyano-N-[(S)-1-(4-fluoro-phenyl)-ethyl]-nicotinamide] | 0.1 to 1 µM |  |  |  | 1 to 10 µM
7 | C[C@H](NC(=O)c1cc(C#N)cnc1NC/C=C/c1ccc2c(c1)NC(=O)C2)c1ccc(F)cc1 [Example 15.3, (S,E)-5-cyano-N-(1-(4-fluorophenyl)ethyl)-2-(3-(2-oxoindolin-6-yl)allylamino)nicotinamide] |  |  | > 5 µM | > 10 µM | 
8 | CC(C)Oc1cc(CNc2ncccc2C(=O)NCc2cccc(F)c2)cc(-c2c[nH]c3ncc(C(=O)NC4CC4)cc23)c1 [Example 4.1.4, N-cyclopropyl-3-{3-[({3-[(3-fluorobenzyl)carbamoyl]pyridin-2-yl}amino)methyl]-5-(propan-2-yloxy)phenyl}-1H-pyrrolo [2,3-b]pyridine-5-carboxamide] |  |  | < 0.1 µM | 1 to 10 µM | 
9 | C[C@H](NC(=O)c1cc(F)cnc1NCc1ccc(-c2ccc3ncnc(N)c3c2)s1)c1ccc(F)cc1 [Example 7.3.2, (S)-2-(((5-(4-aminoquinazolin-6-yl)thiophen-2-yl)methyl)amino)-5-fluoro-N-(1-(4-fluorophenyl)ethyl) nicotinamide] |  |  | < 0.1 µM | < 1 µM | 
10 | C[C@H](NC(=O)c1cccnc1NCc1ccc(-c2ccc3ncnc(N4CC(O)C4)c3c2)s1)c1ccc(F)c(F)c1 [Example 4.34] |  |  | < 0.1 µM | 1 to 10 µM | 
11 | C[C@@H](Nc1ncc(C(F)(F)F)nc1C(=O)Nc1ccc(F)cc1)c1ccc(-c2cnc3[nH]nc(N)c3c2)cc1 [Example 421, (R)-3-(1-(4-(3-amino-1H-pyrazolo[3,4-b]pyridin-5-yl)phenyl)ethylamino)-N-(4-fluorophenyl)-6-(trifluoromethyl)pyrazine-2-carboxamide] | < 0.1 µM | < 1 µM |  |  | 
12 | C[C@H](NC(=O)c1cccnc1NCc1ccc(-c2cn(C3CCC3)c3ncnc(N)c23)s1)c1ccc(F)cc1 [Example 345] | 0.1 to 1 µM |  |  |  | < 1 µM
13 | CCOC(=O)Nc1n[nH]c2ncc(-c3ccc(CNc4ncc(C#N)nc4C(=O)N[C@@H](C)c4ccc(F)c(F)c4)cc3)cc12 [Example 36, (S)-ethyl 5-(4-((5-cyano-3-(1-(3,4-difluorophenyl)ethylcarbamoyl)pyrazin-2-ylamino)methyl)phenyl)-1H-pyrazolo[3,4-b]pyridin-3-ylcarbamate] |  |  | < 0.1 µM | < 1 µM | 
14 | C[C@@H](Nc1ncc(C(F)(F)F)cc1C(=O)Nc1ccc(F)cc1)c1ccc(-c2cnc3[nH]nc(N)c3c2)cc1 [Example 422, 2-{(R)-1-[4-(3-Amino-1H-pyrazolo[3,4-b]pyridin-5-yl)-phenyl]-ethylamino}-N-(4-fluoro-phenyl)-5-trifluoromethyl-nicotinamide] | < 0.1 µM | < 1 µM |  |  | 
15 | Nc1ncnc2ccc(-c3ccc(CNc4nc5ccccc5cc4C(=O)NCc4ccc(F)c(F)c4)s3)cc12 [Ex. 8.14.1, 2-({[5-(4-aminoquinazolin-6-yl)thiophen-2-yl]methyl}amino)-N-(3,4-difluorobenzyl) quinoline-3-carboxamide] |  |  | < 0.1 µM | < 1 µM | 
16 | C[C@H](NC(=O)c1cc(C#N)cnc1NCc1ccc(-c2cnc(N)c(C(=O)NCCN3CCOCC3)n2)cc1)c1ccc(F)cc1 [Example 214, (S)-3-amino-6-(4-((5-cyano-3-(1-(4-fluorophenyl)ethylcarbamoyl)pyridin-2-ylamino)methyl)phenyl)-N-(2-morpholinoethyl) pyrazine-2-carboxamide] | < 0.1 µM | < 1 µM |  |  | 
17 | Nc1ncnc2ccc(-c3ccc(CNc4ncsc4C(=O)NCc4ccc(F)c(F)c4)s3)cc12 [Ex. 12.1] |  |  | < 0.1 µM | > 10 µM | 
18 | O=C(NCc1ccc(F)c(F)c1)c1cccnc1NCc1cnc(-c2c[nH]c3ncccc23)s1 [Ex. 6.10, N-(3,4-difluorobenzyl)-2-({[2-(1H-pyrrolo[2,3-b]pyridin-3-yl)-1,3-thiazol-5-yl]methyl}amino) pyridine-3-carboxamide] |  |  | 0.1 to 1 µM | 1 to 10 µM | 
19 | C[C@H](NC(=O)c1cc(C#N)cnc1NCc1ccc(-c2cnc3[nH]c(=O)[nH]c3c2)cc1)c1ccc(F)c(F)c1 [Example 361, (S)-5-cyano-N-(1-(3,4-difluorophenyl)ethyl)-2-(4-(2-oxo-2,3-dihydro-1H-imidazo[4,5-b]pyridin-6-yl)benzylamino) nicotinamide] | < 0.1 µM | < 1 µM |  |  | 
20 | Nc1ncnn2ccc(-c3ccc(CNc4ncc(C(F)(F)F)cc4C(=O)NCc4ccc(F)c(F)c4)cc3)c12 [Example 176, 2-[4-(4-Amino-pyrrolo [2,1-f][1,2,4]triazin-5-yl)-benzylamino]-N-(3,4-difluoro-benzyl)-5-trifluoromethyl-nicotinamide] | < 0.1 µM | 1 to 10 µM |  |  | 
21 | Nc1n[nH]c2ncc(-c3ccc(CNc4ncc(C(F)(F)F)cc4C(=O)Nc4cccnc4)cc3)cc12 [Example 289, 2-(4-(3-amino-1H-pyrazolo [3,4-b]pyridin-5-yl)benzylamino)-N-(pyridin-3-yl)-5-(trifluoromethyl) nicotinamide] | < 0.1 µM | < 1 µM |  |  | 
22 | O=C(NCc1ccc(F)c(F)c1)c1cccnc1NCc1cccc(-c2c[nH]c3ncccc23)c1 [Example 1.5, 2-(3-(1H-pyrrolo[2,3-b]pyridin-3-yl)benzylamino)-N-(3,4-difluorobenzyl)nicotinamide] |  |  | < 0.1 µM | 1 to 10 µM | 
